Laboratory results taken from US5455271A, “Tight-binding inhibitors of leukotriene A4 hydrolase” (The Scripps Research Institute, priority 1993, dated 1995).
Where two headings read alike, the source gives them in different places.

Assays:
[1] = target: T1, aminopeptidase M (Sus scrofa, UniProt P15145); test: Inhibition of aminopeptidase M; format: biochemical
T1 sequence (P15145 1-963): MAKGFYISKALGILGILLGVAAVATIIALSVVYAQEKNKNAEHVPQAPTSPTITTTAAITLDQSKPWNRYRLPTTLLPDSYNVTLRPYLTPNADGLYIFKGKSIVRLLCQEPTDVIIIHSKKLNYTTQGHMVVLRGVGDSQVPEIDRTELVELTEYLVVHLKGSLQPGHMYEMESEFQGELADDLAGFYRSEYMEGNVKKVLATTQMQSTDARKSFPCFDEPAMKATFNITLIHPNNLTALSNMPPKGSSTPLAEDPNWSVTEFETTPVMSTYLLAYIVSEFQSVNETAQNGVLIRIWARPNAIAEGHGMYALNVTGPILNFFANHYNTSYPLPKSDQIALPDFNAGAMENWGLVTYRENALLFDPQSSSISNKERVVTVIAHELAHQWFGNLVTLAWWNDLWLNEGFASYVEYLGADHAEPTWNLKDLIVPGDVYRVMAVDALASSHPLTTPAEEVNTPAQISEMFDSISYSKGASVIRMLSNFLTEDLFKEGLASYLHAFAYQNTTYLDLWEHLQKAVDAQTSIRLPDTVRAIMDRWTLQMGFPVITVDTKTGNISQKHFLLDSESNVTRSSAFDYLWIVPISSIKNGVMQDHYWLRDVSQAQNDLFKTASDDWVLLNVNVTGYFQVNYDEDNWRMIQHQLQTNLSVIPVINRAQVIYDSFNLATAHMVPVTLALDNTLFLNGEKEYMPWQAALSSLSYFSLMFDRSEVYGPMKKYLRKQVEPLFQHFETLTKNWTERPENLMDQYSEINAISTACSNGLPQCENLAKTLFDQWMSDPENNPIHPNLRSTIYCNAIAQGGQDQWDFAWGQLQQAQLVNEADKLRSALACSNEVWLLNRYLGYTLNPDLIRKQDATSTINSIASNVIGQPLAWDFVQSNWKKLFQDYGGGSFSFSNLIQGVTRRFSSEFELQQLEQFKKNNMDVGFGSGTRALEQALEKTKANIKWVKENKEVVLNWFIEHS

[2] = target: cytosolic leucine aminopeptidase; test: Inhibition of cytosolic leucine aminopeptidase; format: biochemical
[3] = system: Thromboxane B2 (TXB2); test: Inhibition of thromboxane B2 (TXB2) in calcium ionophore A-23187-stimulated human blood; format: cell-based
Procedure: (§4) Blood was drawn from a human volunteer, and a compound solution at one of three concentrations (Table 3) or a single concentration (Table 4), or solution alone (vehicle) was added to a one ml aliquot of the blood. After incubation for 15 minutes, 14 μg of calcium ionophore A-23187 (as the free acid) was added, and the incubation continued for another 15 minutes. The reactions were stopped by immersion of the containers into slush ice, and the samples were centrifuged at 11,000 ×g to pellet red cells and leukocytes. An aliquot of the plasma was then assayed for the presence of thromboxane B2 or leukotriene B4 by standard radioimmunoassay techniques.

[4] = system: Leukotriene B4 (LTB4); test: Inhibition of leukotriene B4 (LTB4) in calcium ionophore A-23187-stimulated human blood; format: cell-based
Procedure: as §4

[5] = system: 15-lipoxygenase; test: Inhibition of 15-lipoxygenase in A-23187-stimulated PMNL with exogenous arachidonic acid; format: cell-based
Text: (§1) Compounds 24 and 27 were also studied for their abilities to inhibit 5- and 15-lipoxygenase using calcium ionophore A-23187-stimulated polymorphonuclear leukocytes (PMNL) in the presence of exogenous arachidonic acid. […] LTC4 Synthase activity in human platelets was also not inhibited.

[6] = system: LTC4 Synthase; test: Inhibition of LTC4 synthase activity in human platelets; format: cell-based
Text: as §1

[7] = system: LTB4 Formation in intact PMNL; test: LTB4 formation in calcium ionophore A-23187-stimulated intact PMNL; format: cell-based; settings: for IC50: Homo sapiens, PMNL, calcium ionophore A-23187-stimulated, dose dependent
[8] = target: T2, LTA4 hydrolase (epoxide hydrolase activity) (Homo sapiens, UniProt P09960); test: Inhibition of epoxide hydrolase activity of LTA4 hydrolase, LTA4 as substrate; format: biochemical; settings: Table 5; read-out: IC50 Epoxide Hydrolase
T2 construct: obtained from human leukocytes and was purified to apparent homogeneity; from tissue; host or cells: human leukocytes (purified to apparent homogeneity)
T2 sequence (P09960 1-611): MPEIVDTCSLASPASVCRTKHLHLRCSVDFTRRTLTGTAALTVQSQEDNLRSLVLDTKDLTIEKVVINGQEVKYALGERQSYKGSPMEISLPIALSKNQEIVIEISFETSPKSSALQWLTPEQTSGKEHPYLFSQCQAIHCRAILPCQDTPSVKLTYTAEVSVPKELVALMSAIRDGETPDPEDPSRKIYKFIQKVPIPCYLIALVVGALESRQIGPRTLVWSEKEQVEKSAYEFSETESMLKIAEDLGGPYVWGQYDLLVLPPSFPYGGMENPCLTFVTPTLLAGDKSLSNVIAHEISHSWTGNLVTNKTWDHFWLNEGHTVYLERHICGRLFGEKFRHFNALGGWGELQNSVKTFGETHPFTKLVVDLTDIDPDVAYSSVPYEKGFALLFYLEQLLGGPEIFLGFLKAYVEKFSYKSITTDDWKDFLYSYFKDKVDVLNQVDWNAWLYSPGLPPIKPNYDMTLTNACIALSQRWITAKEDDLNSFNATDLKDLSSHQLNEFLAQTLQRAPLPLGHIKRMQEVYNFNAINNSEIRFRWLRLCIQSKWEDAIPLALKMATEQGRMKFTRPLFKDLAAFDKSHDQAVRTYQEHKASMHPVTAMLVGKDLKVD
Procedure: Aliquots of enzyme (2.5 mg) were preincubated for 30-40 minutes at room temperature in 100 mL of 50 mM HEPES, pH 8, containing various amounts of the respective inhibitor. […] After addition of 200 ng PGB1 (internal standard), samples were acidified to pH value of 3 with 0.1M HCl, extracted on Chromabond C18 columns (Mackerey & Nagel), and finally analyzed on a computerized Waters HPLC system. The column (Radial-Pak C18 cartridge, 100×5 mm, Waters) was eluted with a mixture of methanol/water/acetic acid (70:30:0.01, v/v) at a flow rate of 1.2 mL/minutes. The UV absorbance of the eluate was monitored continuously at 270 nm. Amounts of LTB4 were computer calculated from peak area ratios between LTB4 and the internal standard PGB1. Peak area ratios were converted into molar ratios from comparisons with standard curve constructed from injections of known amounts of the respective compound.

[9] = target: T3, LTA4 hydrolase (Homo sapiens, UniProt P09960); test: Inhibition of LTA4 hydrolase, amidase (aminopeptidase) activity, L-alanyl p-nitroanilide as substrate; format: biochemical; parameters: LTA4 hydrolase purified from human leukocytes; from tissue; host or cells: human leukocytes (purified enzyme)
T3 sequence (P09960 1-611): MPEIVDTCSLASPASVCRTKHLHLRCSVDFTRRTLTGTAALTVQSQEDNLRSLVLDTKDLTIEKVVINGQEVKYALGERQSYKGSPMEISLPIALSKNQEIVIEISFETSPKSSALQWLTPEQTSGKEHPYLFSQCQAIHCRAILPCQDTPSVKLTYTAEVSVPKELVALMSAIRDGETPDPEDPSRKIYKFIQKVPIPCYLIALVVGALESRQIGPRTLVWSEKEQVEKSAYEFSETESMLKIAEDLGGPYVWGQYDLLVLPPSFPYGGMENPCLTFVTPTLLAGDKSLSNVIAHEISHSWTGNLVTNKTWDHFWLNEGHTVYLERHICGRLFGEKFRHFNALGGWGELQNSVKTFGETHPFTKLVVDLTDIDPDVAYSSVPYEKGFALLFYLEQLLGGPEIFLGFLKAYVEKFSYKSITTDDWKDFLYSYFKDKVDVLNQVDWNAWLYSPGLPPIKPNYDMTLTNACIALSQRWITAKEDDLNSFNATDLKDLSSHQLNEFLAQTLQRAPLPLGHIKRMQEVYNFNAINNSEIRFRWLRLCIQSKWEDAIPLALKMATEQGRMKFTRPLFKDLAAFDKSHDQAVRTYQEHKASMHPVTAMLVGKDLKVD
Procedure: ^a All assays were performed in TrisHCl buffer (0.05 M, pH 8.0) with
Lalanyl pnitroanilide (1.5 mM) as substrate unless otherwise indicated.
for each assay (final volume = 1.0 mL). pNitroaniline formation was
monitored spectrophotometrically at 405 nm. Thiol compounds were assayed
in the presence of 5 mM DTT. The values shown are within ± 5 percent
accuracy. Dixon plot was used to determine the Ki values.

[10] = target: T3, LTA4 hydrolase; test: Kinetic parameters of LTA4 hydrolase-catalyzed hydrolysis of LTA4 and amide substrates; format: biochemical; settings: Table 1; 50 mM TrisCl, pH 7.6, 0.1 M NaCl
Procedure: (§2) Several amino acid amides were assayed as substrates for LTA4 hydrolase. Yuan et al., Bioorg. & Med. Chem. Lett., 1:551 (1991).
(§3) ^a Determined in 50 mM TrisCl, pH 7.6, in the presence of 0.1 M NaCl, […]

[11] = target: T3, LTA4 hydrolase; settings: LTA4 as substrate, Radmark et al., cited from earlier work
[12] = target: T3, LTA4 hydrolase; settings: literature; cited from earlier work
[13] = target: cyclooxygenase; settings: read-out: IC50, cyclooxygenase production of PGD2; cited from earlier work
[14] = target: 5-lipoxygenase; settings: read-out: IC50, 5-lipoxygenase production of 5-HETE; cited from earlier work
[15] = substrate: N=C(N)NCCC[C@H](N)C(=O)Nc1ccc([N+](=O)[O-])cc1; test: purified protein, by the assay type; settings: other: Table 1, 50 mM TrisCl, pH 7.6, 0.1 M NaCl
[16] = substrate: CC(C)C[C@H](N)C(=O)Nc1ccc([N+](=O)[O-])cc1; test: Kinetic parameters of LTA4 hydrolase-catalyzed hydrolysis of LTA4 and amide substrates; format: biochemical; settings: other: Table 1, 50 mM TrisCl, pH 7.6, 0.1 M NaCl
Procedure: as §2, §3

[17] = substrate: CCCCC/C=C\C\C=C/C=C/C=C/[C@@H]1O[C@H]1CCCC(=O)O; test: as above; format: biochemical; settings: other: Table 1, 50 mM TrisCl, pH 7.6, 0.1 M NaCl
Procedure: as §2, §3

[18] = substrate: C[C@H](N)C(=O)Nc1ccc([N+](=O)[O-])cc1; test: as above; format: biochemical; settings: other: Table 1, 50 mM TrisCl, pH 7.6, 0.1 M NaCl
Procedure: as §2, §3

[19] = substrate: NCCCC[C@H](N)C(=O)Nc1ccc([N+](=O)[O-])cc1; test: as above; format: biochemical; settings: other: Table 1, 50 mM TrisCl, pH 7.6, 0.1 M NaCl
Procedure: as §2, §3

[20] = substrate: O=C(Nc1ccc([N+](=O)[O-])cc1)[C@@H]1CCCN1; test: as above; format: biochemical; settings: other: Table 1, 50 mM TrisCl, pH 7.6, 0.1 M NaCl
Procedure: as §2, §3

[21] = read-out: % Inhibition TXB2, Table 4, 10 μM
[22] = Homo sapiens, read-out: % Inhibition LTB4, Table 3
[23] = Homo sapiens, read-out: % Inhibition LTB4, Table 4
[24] = Homo sapiens, Table 3, read-out: % Inhibition LTB4

Molecule: N[C@@H](Cc1ccc(OCc2ccccc2)cc1)[C@H](O)C(=O)OCc1ccccc1 [Compound 24]
- IC50 [1]: > 100 µM
- IC50 [2]: 80 µM
- inhibition at 1 µM ([3]; read-out: % Inhibition TXB2, Table 3, 1 μM): 0%
- inhibition at 3 µM ([3]; read-out: % Inhibition TXB2, Table 3, 3 μM): 17%
- inhibition at 10 µM ([3]; read-out: % Inhibition TXB2, Table 3, 10 μM): 4%
- inhibition at 10 µM [3, 21]: 0%
- inhibition at 1 µM [4, 22]: 7%
- inhibition at 3 µM [4, 22]: 44%
- inhibition at 10 µM [4, 22]: 39%
- inhibition at 10 µM [4, 23]: 18%
- inhibition of 15-lipoxygenase activity (in words) [5]: No inhibition
- inhibition of LTC4 synthase activity (in words) [6]: not inhibited
- IC50 [7]: 0.1 to 0.2 µM
- activity in intact PMNL compared with isolated enzyme (in words) ([7]; intact PMNL versus isolated enzyme): unexpectedly much more active in this assay using intact PMNL than in assays with the isolated enzyme

Molecule: COC(=O)C(=O)[C@@H](N)Cc1ccc(OCc2ccccc2)cc1 [Compound 25]
- IC50 [8]: 100 µM
- IC50 [1]: 80 µM
- inhibition at 1 µM ([3]; Table 3, 1 μM, read-out: % Inhibition TXB2): 25%
- inhibition at 3 µM ([3]; Table 3, 3 μM, read-out: % Inhibition TXB2): 20%
- inhibition at 10 µM ([3]; Table 3, 10 μM, read-out: % Inhibition TXB2): 41%
- inhibition at 1 µM [4, 24]: 29%
- inhibition at 3 µM [4, 24]: 59%
- inhibition at 10 µM [4, 24]: 39%
- tightness of binding to the enzyme relative to Compound 23 ([9]; Compound 25 versus Compound 23): 30 times
- IC50 ([9]; L-alanyl p-nitroanilide 1.5 mM, pH 8.0, thiols with 5 mM DTT): 0.6 µM
- selectivity for LTA4 binding (in words) ([9]; versus other aminopeptidases): selective for LTA4 binding

Molecule: Cl.N[C@H](CS)Cc1ccc(OCc2ccccc2)cc1 [Compound 27, (2S)-3-[4-(benzyloxy)phenyl]-2-amino-propanethiol HCl]
- IC50 [2]: > 50 µM
- inhibition at 10 µM [3, 21]: 100%
- inhibition at 10 µM [4, 23]: 100%
- IC50 ([4]; Homo sapiens, read-out: IC50 in this assay (human blood)): ~1.1 µM
- inhibition of 15-lipoxygenase activity (in words) [5]: No inhibition
- inhibition of LTC4 synthase activity (in words) [6]: not inhibited
- IC50 [7]: 0.1 to 0.2 µM

Molecule: CCCCC/C=C\C\C=C/C=C/C=C/[C@@H]1O[C@H]1CCCC(=O)O [LTA4, 5(S)-5,6-oxido-7,9-trans-11,14-cis-eicosatetraenoic acid]
- kcat /Km [10]: 9.0 × 10^4 M^- x^-1
- Vmax reported for native LTA4 hydrolase [11]: 1.7 to 3.0 µmol/min/mg
- Km ([11]; native LTA4 hydrolase, read-out: Km reported for native LTA4 hydrolase): 7 to 30 µM
- inhibition of LTA4 hydrolase, type of inhibition (in words) [12]: irreversibly inhibited

Molecule: COc1ccc(-n2nc(CCC(=O)N(C)O)cc2-c2ccc(Cl)cc2)cc1 [Tepoxalin]
- potency in the blood eicosanoid assay (in words) ([4]; Table 3 assay system): more potent than any compound in this table
- IC50 [13]: 0.2 µM
- IC50 [14]: 1.29 µM

B1: LTA4 hydrolase (Homo sapiens) (protein)
chain: MPEIVDTCSLASPASVCRTKHLHLRCSVDFTRRTLTGTAALTVQSQEDNLRSLVLDTKDLTIEKVVINGQEVKYALGERQSYKGSPMEISLPIALSKNQEIVIEISFETSPKSSALQWLTPEQTSGKEHPYLFSQCQAIHCRAILPCQDTPSVKLTYTAEVSVPKELVALMSAIRDGETPDPEDPSRKIYKFIQKVPIPCYLIALVVGALESRQIGPRTLVWSEKEQVEKSAYEFSETESMLKIAEDLGGPYVWGQYDLLVLPPSFPYGGMENPCLTFVTPTLLAGDKSLSNVIAHEISHSWTGNLVTNKTWDHFWLNEGHTVYLERHICGRLFGEKFRHFNALGGWGELQNSVKTFGETHPFTKLVVDLTDIDPDVAYSSVPYEKGFALLFYLEQLLGGPEIFLGFLKAYVEKFSYKSITTDDWKDFLYSYFKDKVDVLNQVDWNAWLYSPGLPPIKPNYDMTLTNACIALSQRWITAKEDDLNSFNATDLKDLSSHQLNEFLAQTLQRAPLPLGHIKRMQEVYNFNAINNSEIRFRWLRLCIQSKWEDAIPLALKMATEQGRMKFTRPLFKDLAAFDKSHDQAVRTYQEHKASMHPVTAMLVGKDLKVD
- Km [15]: 200 µM
- Vmax [15]: 135 nmol/min/mg
- Km [16]: 300 µM
- Vmax [16]: 135 nmol/min/mg
- Km [17]: 7.6 µM
- Km [18]: 500 µM
- Vmax [18]: 530 nmol/min/mg
- Km [19]: 100 µM
- Vmax [19]: 30 nmol/min/mg
- Km [20]: 100 µM
- Vmax [20]: 135 nmol/min/mg
